Source: US20250205253A1, “PHARMACEUTICAL COMPOSITION FOR PREVENTING OR TREATING BENIGN PROSTATIC HYPERPLASIA” (University-Industry Cooperation Group of Kyung Hee …, priority 2023, published 2025)

What was measured:
[1] = tested on: siRNA-transfected RWPE-1 cells; assay: siRNA transfection (NLRP3 or AR knockdown) with qRT-PCR in RWPE-1 cells; format: cell-based, human; conditions: for AR level (mRNA) in NLRP3 siRNA-transfected cells / NLRP3 level (mRNA) in AR siRNA-transfected cells: DHT stimulation, with or without 100 μM MitoQ; for AR level (mRNA) in NLRP3 siRNA-transfected cells: FIG. 3D; for NLRP3 level (mRNA) in AR siRNA-transfected cells: FIG. 3E
Description: (§1) Total RNA was isolated using Easy-Blue® reagent (iNtRON Biotechnology, Inc., Gyeonggi, Korea) and transcribed into complementary DNA (cDNA) according to the manufacturer's instructions. Oligonucleotide primers (Table 1) were purchased from Bioneer Corporation (Daejeon, Korea). qRT-PCR was performed according to the known method.
The RWPE-1 cells were transfected with siRNA (Bioneer Corporation) or pmaxGFP™ vector using a 4D-Nucleofector™ system (Lonza, Basel, Switzerland). The following siRNA nucleotide sequences were used: NLRP3 siRNA, […]=tt(1-AS) (SEQ ID NO.: 39) and […]=tt (1-AA) (SEQ ID NO.: 40) and AR siRNA, […]=tt (6-AS) (forward) (SEQ ID NO.: 41) and […]=tt (6-AA) (reverse) (SEQ ID NO.: 42). After four hours of incubation, the cells were treated in the presence or absence of MitoQ 100 μM. The effect of NLRP3 or AR knockdown was detected using qRT-PCR.

[2] = tested on: DHT-stimulated RWPE-1 cells; assay: Immunofluorescence (8OHdG, NLRP3, AR) in DHT-stimulated RWPE-1 cells; format: cell-based, human; conditions: DHT-stimulated RWPE-1, MitoQ 25, 50, 100 μM
Description: (§2) The RWPE-1 cells were cultured in a keratinocyte serum-free medium supplemented with 0.05 mg/mL bovine pituitary extract, 5 ng/mL human recombinant epidermal growth factor, and antibiotic-antimycotic solution (Gibco®, Big Cabin, OK, USA). The cells were cultured in a humidified environment at 37° C. and 5% CO2. The cells were cultured in a serum-free medium to block the effects of autocrine androgens.
Thereafter, the cells were washed and incubated with fluorescein isothiocyanate (FITC)-conjugated anti-mouse or tetramethylrhodamine (TRITC)-conjugated anti-rabbit secondary antibodies. Nuclei were stained with 4′,6-diamidino-2-phenylindole (Life Technologies). Images were captured using an optical microscope (ECLIPSE Ni-U, Nikon, Tokyo, Japan).

[3] = tested on: DHT-stimulated RWPE-1 cells; assay: Mitochondrial activity and mtROS levels (MitoTracker, MitoSOX); format: cell-based, human; conditions: DHT-stimulated RWPE-1, 100 μM MitoQ, 24 h; FIG. 1F
[4] = tested on: testosterone-induced BPH rat model; assay: Western blot of prostate tissue of rats with BPH; format: in vivo
Description: (§3) Total protein was extracted from the RWPE-1 cells and rat prostate tissues, and a western blot analysis was performed. An antibody against AR (Cat. No. sc-7305) was purchased from Santa Cruz Biotechnology, Inc. (TX, USA). Boster Biological Technology (CA, USA) provided an antibody against a prostate-specific antigen (PSA; Cat. No. PB9259). An antibody against caspase-3 (Cat. No. #9661) was purchased from Cell Signaling Technology. Novus Biologicals (CO, USA) provided an antibody against NLRP3 (Cat. No. NBP2-12446). An antibody against IL-1β (Cat. No. 2105) was purchased from Abcam (Cambridge, UK).
(§4) Six-week-old male Sprague-Dawley rats (n=40; 200 +20 g) were purchased from Daehan Biolink Co. (Daejeon, Korea). The animals were randomly allocated, four rats in each cage, and housed in accordance with the guidelines for the care and use of laboratory animals adopted and promulgated by Sangji University according to the requirements established by the National Institutes of Health. All experimental protocols were approved by the Institutional Animal Care and Use Committee (IACUC) of Sangji University before the initiation of the study (IACUC Animal Approval Protocol #2018-18). The rats were acclimatized to laboratory conditions for one week before initiating the experiment.
(§5) The rats in the control group were incised and sutured without removing the testicles following anesthesia using zoletil 50 (intraperitoneal injection, 10 mg/kg). […] Twenty-four hours after the final administration, all rats were euthanized following anesthesia with zoletil 50 (i.p., 20 mg/kg). Blood samples were drawn through cardiac puncture, and serum was obtained via centrifugation and stored at −80° C.

[5] = tested on: DHT-stimulated RWPE-1 cells; assay: Western blot analysis in DHT-stimulated RWPE-1 cells; format: cell-based, human; conditions: DHT-stimulated RWPE-1, MitoQ 25, 50, 100 μM
Description: as §2, §3

[6] = tested on: testosterone-induced BPH rat model; assay: Immunofluorescence (8-OHdG, NLRP3) of rat prostate tissue; format: in vivo
Description: After deparaffinization and rehydration, rat prostate tissue slides were incubated with anti-mouse 8-OHdG antibodies or anti-rabbit NLRP3 antibodies and visualized with FITC-conjugated anti-mouse and TRITC-conjugated anti-rabbit secondary antibodies, respectively.
The slides were mounted and detected using a Nikon X-Cite-Series 120 Q microscope (Nikon, Japan). The exposure parameters were the same for each sample.
as §4
(§6) The rats in the control group were incised and sutured without removing the testicles following anesthesia using zoletil 50 (intraperitoneal injection, 10 mg/kg). […] Twenty-four hours after the final administration, all rats were euthanized following anesthesia with zoletil 50 (i.p., 20 mg/kg). […]

[7] = tested on: testosterone-induced BPH rat model; assay: PCNA IHC and qRT-PCR in prostate of rats with BPH; format: in vivo
Description: as §1, §4, §6

AR (PDB ID: 2AMA) = molecular target: T1, AR (PDB ID: 2AMA) (Homo sapiens, UniProt P10275); assay: Docking simulation (AutoDock Vina v1.1.2) on AR
T1 sequence (P10275 664-920 limits assumed): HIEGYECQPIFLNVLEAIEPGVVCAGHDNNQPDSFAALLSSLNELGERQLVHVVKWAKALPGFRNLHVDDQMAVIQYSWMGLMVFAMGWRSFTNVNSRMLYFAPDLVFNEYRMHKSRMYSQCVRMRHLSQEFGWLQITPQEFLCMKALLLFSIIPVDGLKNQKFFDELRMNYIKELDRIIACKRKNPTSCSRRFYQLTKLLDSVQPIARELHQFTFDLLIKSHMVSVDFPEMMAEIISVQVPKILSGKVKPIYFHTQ

[8] = tested on: testosterone-induced BPH rat model; assay: Serum DHT and testosterone measurement (ELISA) in rats with BPH; format: in vivo
Excerpt: as §4, §5
The serum DHT and testosterone levels were quantified using commercial ELISA kits (Cusabio, TX, USA). The assays were performed according to the manufacturer's instructions.

[9] = tested on: DHT-stimulated RWPE-1 cells; assay: ATP determination assay in DHT-stimulated RWPE-1 cells; format: cell-based, human; conditions: DHT-stimulated RWPE-1, MitoQ 25, 50, 100 μM, dose-dependent; FIG. 2F
[10] = tested on: testosterone-induced BPH rat model; assay: ROS assay on cells from rat prostate tissue; format: in vivo; conditions: dose-dependent, MitoQ 5 and 25 mg/kg/day; FIG. 5C
Excerpt: as §4, §5
After the male rats were euthanized, the prostate tissues were excised and treated with type I collagenase (Thermo Fisher Scientific, MA, USA) to isolate the cells. […] The cells were incubated for 30 minutes at 37° C. and detected using a Muse® Cell Analyzer (Merck, Darmstadt, Germany).

[11] = tested on: testosterone-induced BPH rat model; assay: Testosterone-induced BPH rat model, prostate size and weight; format: in vivo
Excerpt: as §4, §5

[12] = tested on: DHT-stimulated RWPE-1 cells; assay: CCK-8 assay, RWPE-1 cell proliferation under DHT stimulation; format: cell-based, human; conditions: 10 nM DHT, 24 h, FIG. 1C
Description: as §2
(§7) The cell viability and proliferation were measured using the Cell Counting Kit-8 (CCK-8, Dojindo Molecular Technologies, Inc., D.C., USA). The RWPE-1 cells were plated to 96-well plates (1×10^5 cells/well) and incubated for 24 h. […] After the treatment, the CCK-8 solution was added to each well and incubated for four hours. The number of viable cells was monitored by measuring absorbance at 450 nm using an Epoch microplate reader (Biotek, Winooski, VT, USA).

[13] = tested on: DHT-stimulated RWPE-1 cells; assay: qRT-PCR mRNA expression in DHT-stimulated RWPE-1 cells; format: cell-based, human; conditions: for mRNA level of HO-1 and GPX-1: FIG. 1E
Description: as §2, §1

[14] = tested on: testosterone-induced BPH rat model; assay: qRT-PCR mRNA level in prostate of rats with BPH; format: in vivo
Description: as §1, §4, §5

[15] = tested on: DHT-stimulated RWPE-1 cells; assay: ATPase assay in DHT-stimulated RWPE-1 cells; format: cell-based, human; conditions: DHT-stimulated RWPE-1, MitoQ 25, 50, 100 μM, 24 h; FIG. 2E
[16] = tested on: testosterone-induced BPH rat model; assay: Histological analysis (H&E) of prostate tissue of rats with BPH; format: in vivo; conditions: MitoQ 5, 25 mg/kg/day; Saw 100 mg/kg/day p.o.; FIGS. 4C, 4D
Excerpt: as §4, §5
Prostate tissues from each group were fixed in 4% formalin and embedded in paraffin. The tissues were cut into 4-μm sections. […] The thickness of the epithelium in the prostate tissues was measured using the Leica Application Suite software (LAS ver. 3.3.0, Leica Microsystems, Inc., Buffalo Grove, IL, USA).

RWPE-1 cells = assay: CCK-8 assay, viability of MitoQ-treated RWPE-1 cells; format: cell-based, human; conditions: without DHT, 24 h, FIG. 1B
Description: The normal human prostate epithelial cell line, RWPE-1, was obtained from the American Type Culture Collection (Manassas, VA, USA).
as §2, §7

Substance: NLRP3 siRNA: siRNA CGUGACAGUCCUUCUGGAA=tt (SEQ ID NO.: 39) and UUCCAGAAGGACUGUCACG=tt (SEQ ID NO.: 40) (3' dTdT overhangs, further chemistry not given here)
- AR level (mRNA) in NLRP3 siRNA-transfected cells [1]: significantly increased
- NLRP3 and IL-1β levels after siRNA transfection ([1]; DHT-stimulated RWPE-1, vs GFP-transfected cells, FIG. 2C): notably suppressed
- NLRP3 mRNA expression after siRNA transfection ([1]; RWPE-1 cells, FIG. 2G): significant decrease

Substance: AR siRNA: siRNA CUCUCUUCACAGCCGAAGA=tt (SEQ ID NO.: 41) and UCUUCGGCUGUGAAGAGAG=tt (SEQ ID NO.: 42) (3' dTdT overhangs, further chemistry not given here)
- NLRP3 level (mRNA) in AR siRNA-transfected cells [1]: significantly enhanced

Substance: mitoquinone
- overexpression of 8OHdG (oxidative stress indicator) ([2]; FIG. 1D): notably suppressed
- NLRP3 protein expression ([2]; FIG. 2A): significantly suppressed
- AR overexpression (protein) ([2]; FIG. 3A): clearly suppressed
- excessive production of mtROS [3]: suppressed
- overexpression of NLRP3, pro-caspase 1, cleaved caspase 1, and IL-1β proteins ([4]; FIGS. 6D, 6E): suppressed
- expression of catalase and SOD2 (protein) ([4]; vs BPH groups, FIG. 5E): significantly higher
- protein expression of PSA ([4]; vs BPH groups, FIG. 7D): decreased
- SOD2 and catalase protein expression ([5]; FIG. 1G): significantly increased
- PSA protein expression ([5]; FIG. 3C): considerably suppressed
- BPH-upregulated expression of NLRP3 ([6]; FIGS. 6A, 6B): reversed
- intensity of 8-OHdG-positive staining ([6]; vs BPH groups, FIGS. 5A, 5B): significantly lower
- cellular proliferation inhibiting effect compared to Saw ([7]; MitoQ 25 mg/kg/day vs Saw 100 mg/kg/day): superior
- overexpression of PCNA protein and mRNA ([7]; MitoQ 5, 25 mg/kg/day, Saw 100 mg/kg/day p.o., FIGS. 4C, 4E, 4F): clearly suppressed
- difference between the affinity values of DHT and MitoQ for AR (AR (PDB ID: 2AMA)): ~1 kcal/mol
- serum DHT overproduction ([8]; FIG. 7A): significantly suppressed
- circulating (serum) testosterone level ([8]; MitoQ 25 mg/kg, Saw 100 mg/kg/day, FIG. 7E): significantly reduced
- ATP level [9]: significantly reduced
- intracellular ROS generation in prostate cells [10]: significantly suppressed
- prostate weight (PW/BW ratio) ([11]; MitoQ 5, 25 mg/kg/day, Saw 100 mg/kg/day p.o., vs BPH, FIG. 4B): significant reduction
- prostate size ([11]; MitoQ 5 and 25 mg/kg p.o., four weeks, FIG. 4A): reduced
- concentration of MitoQ significantly suppressing DHT-stimulated RWPE-1 cell proliferation [12]: ≥ 6.25 μM
- mRNA level of HO-1 and GPX-1 ([13]; DHT-stimulated RWPE-1, 100 μM MitoQ): significantly increased
- mRNA expression of NLRP3, PYCARD, and IL-1β ([13]; DHT-stimulated RWPE-1, MitoQ 25, 50, 100 μM, FIG. 2B): significantly reduced
- mRNA level of AR, 5α-reductase 2, and PSA ([13]; DHT-stimulated RWPE-1, MitoQ 25, 50, 100 μM, FIG. 3B): notably inhibited
- mRNA level of HO-1 and GPX-1 ([13]; DHT-stimulated RWPE-1, MitoQ treatment): normalized
- mRNA level of HO-1, SOD1, and PGC1α ([14]; FIG. 5D): upregulated
- increased mRNA level of PYCARD and IL-1β ([14]; FIG. 6C): repressed
- mRNA level of 5α-reductase 2, AR, and SRC-1 ([14]; FIGS. 7B, 7C): downregulated
- ATPase-specific activity [15]: significantly suppressed
- AR level (mRNA) in NLRP3 siRNA-transfected cells [1]: notably downregulated
- NLRP3 level (mRNA) in AR siRNA-transfected cells [1]: significantly suppressed
- thickened epithelium of prostate tissue [16]: significantly reduced
- concentration of MitoQ suppressing RWPE-1 cell proliferation (viability) (RWPE-1 cells): ≥ 25 μM
